The record followed here is PMC9739877, “Discovery and Mechanistic Investigation of Piperazinone Phenylalanine Derivatives with Terminal Indole or Benzene Ring as Novel HIV-1 Capsid Modulators” (Molecules, 2022).

One data set concerns HIV-2 (ROD). Kind of data set: Anti-HIV-2 (ROD) activity in MT-4 cells, MTT assay. The following applies: Human immunodeficiency virus 2, MT4, 50% protection against HIV-induced cytotoxicity. It is filed as cell-based. The method, then: (§1) II. In vitro anti-HIV Assay in MT-4 Cells
(§2) Evaluation of the antiviral activity of the compounds against HIV in MT-4 cells was performed using the MTT assay as described below. Stock solutions (10 × final concentration) of test compounds were added in 25 µL volumes to two series of triplicate wells to allow simultaneous evaluation of their effects on mock- and HIV-infected cells at the beginning of each experiment. Serial 5-fold dilutions of test compounds were made directly in flat-bottomed 96-well microtiter trays using a Biomek 3000 robot (Beckman Instruments, Fullerton, CA). Untreated HIV- and mock-infected cell samples were included as controls. HIV stock (50 µL) at 100-300 CCID50 (50 % cell culture infectious doses) or culture medium was added to either the infected or mock-infected wells of the microtiter tray. Mock-infected cells were used to evaluate the effects of the test compound on uninfected cells to assess the test compounds' cytotoxicity. Exponentially growing MT-4 cells were centrifuged for 5 minutes at 220 g, and the supernatant was discarded. […]
(§3) cells/mL, and 50 µL volumes were transferred to the microtiter tray wells. Five days after infection, the viability of mock-and HIV-infected cells was examined spectrophotometrically using the MTT assay. The MTT assay is based on the reduction of yellow colored 3-(4,5-dimethylthiazol-2-yl)-2,5-diphenyltetrazolium bromide (MTT) (Acros Organics) by mitochondrial dehydrogenase activity in metabolically active cells to a blue-purple formazan that can be measured spectrophotometrically. The absorbances were read in an eight-channel computer-controlled photometer (Infinite M1000, Tecan), at two wavelengths (540 and 690 nm). All data were calculated using the median absorbance value of three wells. […]
(§4) was defined as the concentration of the test compound that reduced the absorbance (OD540) of the mock-infected control sample by 50%. The concentration achieving 50% protection against the cytopathic effect of the virus in infected cells was defined as the […]
(In general: Tetrazolium assays rely on reduction of a dye to a coloured formazan, in cell work by metabolically active cells.)

Another data set relates to MT-4 cells. Kind of data set: Cytotoxicity in mock-infected MT-4 cells, MTT assay. The data set is classed as cell-based. To be noted: 50% reduction of viability of mock-infected MT-4 cells. On the procedure: (§5) II. In vitro anti-HIV Assay in MT-4 Cells […]
(§6) performed using the MTT assay as described below. Stock solutions (10 × final concentration) of test compounds were added in 25 µL volumes to two series of […]
(§7) infected cells at the beginning of each experiment. Serial 5-fold dilutions of test […]
(§8) Biomek 3000 robot (Beckman Instruments, Fullerton, CA). Untreated HIV- and mock-infected cell samples were included as controls. HIV stock (50 µL) at 100-300 CCID50 […]
(§9) or mock-infected wells of the microtiter tray. Mock-infected cells were used to evaluate […]
(§10) cytotoxicity. Exponentially growing MT-4 cells were centrifuged for 5 minutes at 220 g, and the supernatant was discarded. […]
(§11) cells/mL, and 50 µL volumes were transferred to the microtiter tray wells. Five days […]
(§12) spectrophotometrically using the MTT assay. The MTT assay is based on the reduction […]
(§13) M1000, Tecan), at two wavelengths (540 and 690 nm). All data were calculated using the median absorbance value of three wells.
(§14) (OD540) of the mock-infected control sample by 50%. The concentration achieving 50%

For the next data set, the system named is HIV-1 (IIIB). Put plainly: microbe, parasite or virus in culture. It is filed as cell-based. To be noted: Human immunodeficiency virus 1, MT4, 50% protection against HIV-induced cytotoxicity, MT-4 cells, MTT. On the procedure:
as §1, §2, §3, §4

Data set [1] in a line: in vitro. The following applies: both, human, plasma.
The next data set has as its target T1, HIV-1 CA monomer (Human immunodeficiency virus type 1 group M subtype B, UniProt P12493).
T1 construct: a vector containing C-terminally His-tagged HIV-1NL4-3CA; His6 (CA-H6) (C); made in house; host or cells: E. coli BL21-Codon Plus (DE3)-RIL
Put plainly: biochemical. The following applies: SPR. The data set is classed as binding.

In another data set the target is HIV-1 CA hexamer (Human immunodeficiency virus type 1 group M subtype B, UniProt P12493, A146C/E177C/M317A/W316A). Kind of data set: SPR binding to disulfide-stabilized hexameric HIV-1 CA. Background: SPR reads the build-up and loss of mass on a sensor chip optically.
Data set [2] is described as follows: in vitro. The following applies: human, microsomes.
For data set [3] the following is noted: human, microsomes.
The nature of data set [4]: Cytotoxicity in mock-infected MT-4 cells, MTT assay. The following applies: human, 50% reduction of viability of mock-infected MT-4 cells. The data set is classed as cell-based. The method, then:
as §5, §6, §7, §8, §9, §10, §11, §12, §13, §14

Molecules are shown by their SMILES.

The EC50 is the concentration needed to bring the measured effect to its halfway point. Low values mean greater potency, high ones weaker potency. The term CC50 denotes the concentration that lowers cell viability or growth by half. A lower CC50 goes with greater toxicity to the cells. For orientation: half-life means the time needed for the level to fall by half in the phase considered. Higher therefore signals slow loss. For orientation: amount remaining means the share of the starting amount still present when the sample was taken. A lower amount remaining goes with more turnover. As a reminder, the Kd is the constant that tells how readily two partners part at equilibrium. A high value points to a looser complex. One may read the CLint scaled as the rate of metabolic loss divided by the concentration. Lower therefore signals slow turnover. Usually microsomal CLint stands for the rate of metabolic loss divided by the concentration. Low readings indicate greater metabolic stability, high ones faster metabolism. `COc1ccc(N(C)C(=O)[C@H](Cc2cc(F)cc(F)c2)NC(=O)CN2CCN(C(=O)Cc3c[nH]c4ccc(F)cc34)CC2=O)cc1` [F2-7f, (S)-3-(3,5-difluorophenyl)-2-(2-(4-(2-(5-fluoro-1H-indol-3-yl)acetyl)-2-oxopiperazin-1-yl)acetamido)-N-(4-methoxyphenyl)-N-methylpropanamide]: it took 5.07 ± 0.63 µM to reach a half-maximal effect with HIV-2 (ROD) (EC50). In addition, in the data set on MT-4 cells, it took 16.4 ± 3.38 µM to reach half-maximal cytotoxicity (CC50). The same molecule returned an EC50 in the data set with HIV-1 (IIIB) of 5.89 ± 2.03 µM. In addition, in the data set “in vitro [1]”, the half-life at 2 μM was over 289 min; the share remaining at 0 h, 2 μM was 100%; the amount remaining at 10 min, 2 μM was 98%; the share remaining at 0.5 h, 2 μM amounted to 97.8%. Further, in the data set “in vitro [1]”, the fraction remaining at 1 h, 2 μM came out at 90.9% and the amount remaining at 2 h, 2 μM worked out at 86.9%. At HIV-1 CA monomer, this molecule gave a Kd of 16.1 ± 1.32 µM. Besides, the Kd at HIV-1 CA hexamer worked out at 7.2 ± 1.1 µM. Moreover, the “koff times higher than that of PF74” value on HIV-1 CA hexamer (CA hexamers) is “approximately 8.5 times”. In addition, the “Ratio KD Monomer/KD Hexamer” value on HIV-1 CA hexamer (SPR) stood at 2.230. Also, the “koff Hexamer” value at HIV-1 CA hexamer (off-rate measured for HIV-1 CA hexamer) amounted to 0.151 ± 0.028 s⁻¹. Further, in “in vitro [2]”, the CLint scaled at 1 μM was determined as 2480 mL/min/kg, the half-life at 1 μM worked out at 0.5 min and the microsomal CLint at 1 μM worked out at 2760 µL/min/mg. For the same molecule, in [3] (1 h, 1 μM), the “Remaining (NCF = 60 min)” value worked out at 103.5% and the “Remaining (T = 60 min)” value was found to be 0.0%.

For `COc1ccc(N(C)C(=O)[C@H](Cc2ccccc2)NC(=O)CN2CCN(C(=O)c3ccc(NS(C)(=O)=O)cc3)CC2=O)cc1` [7h, (S)-N-(4-methoxyphenyl)-N-methyl-2-(2-(4-(4-(methylsulfonamido)benzoyl)-2-oxopiperazin-1-yl)acetamido)-3-phenylpropanamide], the results for the EC50 in the data set on HIV-2 (ROD) and in the data set with HIV-1 (IIIB) were over 201 µM and 192 ± 3.17 µM, respectively. The molecule further yielded a CC50 at 5 days in data set [4] of over 201 µM.

For the molecule `COc1ccc(N(C)C(=O)[C@H](Cc2ccccc2)NC(=O)CN2CCN(C(=O)c3ccc(NC(C)=O)cc3)CC2=O)cc1` [7g, (S)-2-(2-(4-(4-acetamidobenzoyl)-2-oxopiperazin-1-yl)acetamido)-N-(4-methoxyphenyl)-N-methyl-3-phenylpropanamide], the figures for the EC50 in the data set with HIV-2 (ROD) and in the data set on HIV-1 (IIIB) were 184 ± 19.3 µM and 203 ± 11 µM, respectively. This molecule returned a CC50 at 5 days in [4] of over 213 µM.

Turning to `COc1ccc(N(C)C(=O)[C@H](Cc2ccccc2)NC(=O)CN2CCN(C(=O)Cc3c[nH]c4ccc(O)cc34)CC2=O)cc1` [7e, (S)-2-(2-(4-(2-(5-hydroxy-1H-indol-3-yl)acetyl)-2-oxopiperazin-1-yl)acetamido)-N-(4-methoxyphenyl)-N-methyl-3-phenylpropanamide], the EC50 with HIV-2 (ROD) worked out at 186 ± 4.42 µM; in the data set on HIV-1 (IIIB) it was 198 ± 9.74 µM. In data set [4], this molecule yielded a CC50 at 5 days of over 209 µM.

In the case of `O=C(O)Cc1ccccc1Nc1c(Cl)cccc1Cl` [Diclofenac, diclofenac], in [3], the “CLint(liver)” value is listed as 334.8 mL/min/kg, the “CLint(mic)” value is 372.0 µL/min/mg and the T1/2 is given as 3.7 min.
